The assay has as its target T1, Tyrosine-protein phosphatase non-receptor type 11 (Homo sapiens, UniProt Q06124).
T1 sequence (Q06124 whole entry): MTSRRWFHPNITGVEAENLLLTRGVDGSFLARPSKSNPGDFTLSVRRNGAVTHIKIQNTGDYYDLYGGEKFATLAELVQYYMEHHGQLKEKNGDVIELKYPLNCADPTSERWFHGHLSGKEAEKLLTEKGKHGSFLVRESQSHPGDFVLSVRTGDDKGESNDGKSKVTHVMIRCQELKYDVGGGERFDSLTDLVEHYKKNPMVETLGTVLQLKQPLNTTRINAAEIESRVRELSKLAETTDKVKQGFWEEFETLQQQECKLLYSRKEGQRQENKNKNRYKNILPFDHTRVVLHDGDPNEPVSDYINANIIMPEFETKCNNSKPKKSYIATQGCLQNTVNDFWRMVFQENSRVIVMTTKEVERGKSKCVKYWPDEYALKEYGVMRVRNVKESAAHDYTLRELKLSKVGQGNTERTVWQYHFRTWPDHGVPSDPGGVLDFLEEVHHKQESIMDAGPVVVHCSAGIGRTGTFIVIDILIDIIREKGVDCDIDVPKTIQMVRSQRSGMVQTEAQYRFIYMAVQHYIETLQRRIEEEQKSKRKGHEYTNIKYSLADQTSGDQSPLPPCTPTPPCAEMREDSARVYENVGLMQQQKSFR
Nature of the assay: Test of Inhibitory Activity Assay. How it is done: (1) Preparing 1×Reaction Buffer according to the BPS Biosciences' Instructions for Use of the SHP2 enzyme. (2) Preparing a compound concentration gradient: Test the test compound at 10 μM under 3× dilution for 10 concentrations, diluting to a 100% dimethyl sulfoxide solution at a 100× final concentration in a 384-well plate, and diluting the compound with Precision 4× for 10 concentrations. […] (3) Preparing the activation peptide solution at a 5× final concentration with the 1×Reaction Buffer, adding 5 μL of the solution to a reaction plate, respectively, and centrifuging at 1000 rpm for 1 min. (4) Preparing an enzyme solution at a 2.5× final concentration with the 1×Reaction Buffer, adding 10 μL of the solution to the reaction plate, respectively, centrifuging at 1000 rpm for 1 min, and incubating at room temperature for 60 min. […] (6) Adding 30 μL of stop test solution to stop the reaction, centrifuging at 1000 rpm for […], and mixing well by shaking. (7) Reading the conversion rate with a Caliper EZ Reader. (7) Data analysis:%Inhibition=Conversion%_max-Conversion%_sampleConversion%_max-Conversion%_min×100Wherein: Conversion %/_sample is the reading of a conversion rate of a sample; Conversion %_min: mean of negative control wells, which represents the reading of a conversion rate in absence of enzyme activity wells; Conversion %_max: mean of a ratio of positive control wells, which represents the reading of a conversion rate in absence of compound inhibition wells.

Take `Cc1nc(N2CCC(C)(N)CC2)n2ncnc2c1-c1cccc(Cl)c1Cl` [US12281118, Example 21]: the 50% inhibitory concentration (IC50) – broadly, the concentration that gives 50% inhibition – was more than 1000 nM.

For the compound `CC1(N)CCN(c2nc(CF)c(-c3cccc(Cl)c3Cl)c3nccn23)CC1` [US12281118, Example 28], the half-maximal inhibitory concentration (IC50) came out at 53 nM.

`Cc1nc(N2CCC(C)(N)CC2)n2ccnc2c1Sc1cccc(Cl)c1Cl` [US12281118, Example 25] showed an IC50 of 65 nM.

In the case of `Cc1nc(N2CCC3(CC2)Cc2ccccc2[C@H]3N)n2ccnc2c1Sc1cccnc1C(F)(F)F` [US12281118, Example 2], the midpoint of inhibition, the IC50, lay at 6.3 nM.

Compound `Cc1nc(N2CCC(C)(N)CC2)n2cnnc2c1-c1cccc(Cl)c1Cl` [US12281118, Example 22] yielded a half-maximal inhibitory concentration (IC50) of more than 1000 nM.

For `Cc1cc(N2CCC(C)(N)CC2)n2cnnc2c1-c1cccc(Cl)c1Cl` [US12281118, Example 23], the IC50 is more than 1000 nM.

These data come from BindingDB's records for patent US12281118 (Shanghai Ringene Biopharma, 2025).
